Experimental data reported in PubChem BioAssay (NCI).
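Cultured in 96-well plates, cells were exposed to test compound for 48 hours across five concentrations. GI50 is the concentration that inhibits growth by half. TGI: total growth inhibition.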

Legend:
Test in all cases: DTP human tumour cell line panel, 48 h
[1] = system: 786-0 renal
[2] = system: A549 NSCLC
[3] = system: K-562 leukemia
[4] = system: MCF7 breast
[5] = system: NCI-H226 lung
[6] = system: NCI-H460 lung
[7] = system: SK-MEL-2 melanoma
[8] = system: SK-MEL-28 melanoma
[9] = system: SN12C renal
[10] = system: HOP-92 NSCLC

Compound	TGI [1]	TGI [2]	TGI [3]	TGI [4]	TGI [5]	TGI [6]	TGI [7]	TGI [8]	TGI [9]	TGI [10]	GI50 [1]	GI50 [2]	GI50 [10]	GI50 [3]	GI50 [5]	GI50 [6]	GI50 [7]	GI50 [8]	GI50 [9]
O=C(CCCn1ccnc1[N+](=O)[O-])NCCn1cnc([N+](=O)[O-])c1	> 100 µM	> 100 µM	> 100 µM	> 100 µM	> 100 µM	> 100 µM	> 100 µM	> 100 µM	> 100 µM	–	–	–	–	–	–	–	–	–	–
COc1ccc(-c2cc(-c3ccccc3)c(C#N)c(=O)[nH]2)cc1	> 100 µM	> 100 µM	> 100 µM	–	> 100 µM	> 100 µM	–	> 100 µM	> 100 µM	> 100 µM	–	–	–	–	–	–	–	–	–
NNC(=O)CC(=O)Nc1ccccc1F	> 100 µM	> 100 µM	> 100 µM	–	> 100 µM	> 100 µM	–	> 100 µM	> 100 µM	> 100 µM	–	–	–	–	–	–	–	–	–
CCOC(=O)c1c(-c2[nH]c(C(=O)OCc3ccccc3)c(C)c2C(=O)OCC)[nH]c(C(=O)OCc2ccccc2)c1C	> 100 µM	> 100 µM	–	–	> 100 µM	> 100 µM	> 100 µM	> 100 µM	> 100 µM	> 100 µM	–	–	–	–	–	–	–	–	–
CC(=O)OCCC/C(=C\c1ccc2ccccc2c1)[N+](=O)[O-]	3.35 µM	31.2 µM	> 100 µM	–	4.16 µM	8.62 µM	3.62 µM	2.84 µM	3.32 µM	3.17 µM	1.81 µM	3.41 µM	1.44 µM	2.01 µM	1.76 µM	2.91 µM	1.71 µM	1.26 µM	1.54 µM
CCOC(=O)CNC(SC)=C(C#N)C#N	> 100 µM	> 100 µM	> 100 µM	–	> 100 µM	> 100 µM	–	–	> 100 µM	> 100 µM	–	–	–	–	–	–	–	–	–
O=C1C2C(C(=O)[N]1[Hg][c]1ccccc1)C1(Cl)C(Cl)=C(Cl)C2(Cl)C1(Cl)Cl (centres undefined)	3.48 µM	25 µM	11.4 µM	–	4.18 µM	12.4 µM	3.15 µM	2.73 µM	–	3.97 µM	1.85 µM	9.84 µM	1.87 µM	1.36 µM	1.59 µM	2.61 µM	1.49 µM	1.38 µM	–
